Entries after “also recorded” stand apart in the source; their conditions may differ. Structures can show the parent of a compound that is named as a salt. Each block holds one molecule with its values, some of them ahead of it.
Columns and labels:
[1] = Solid form stability of forms of compound of formula (IV) (Temperature / Humidity Controlled XRPD, storage, suspension); assay type: physicochemical
Method: The term"XRPD" denotes the analytical method of X-Ray Powder Diffraction. XRPD patterns were recorded at ambient conditions in transmission geometry with a STOE STADI P diffractometer (Cu K alpha radiation source, primary monochromator, position sensitive detector, angular range 3° to 42° 2Theta, approximately 60 minutes total measurement time). The repeatability of the angular values is in the range of 2Theta ±0.2°. The term "approximately" given in combination with an angular value denotes the repeatability which is in the range of 2Theta ±0.2°. The samples were prepared and analyzed without further processing (e.g. grinding or sieving) of the substance. The relative XRPD peak intensity is dependent upon many factors such as structure factor, temperature factor, crystallinity, polarization factor, multiplicity, and Lorentz factor. Relative intensities may vary considerably from one measurement to another due to preferred orientation effects. Humidity Controlled XRPD analyses were performed in reflection geometry with a Siemens D5000 Diffractometer (Cu radiation source, Ni K beta filter, Scintillation detector, angular range 3° to 42° 2Theta, approximately 180 minutes total measurement time per humidity level). The diffractometer is equipped with an MRI (Materials Research Instruments) humidity chamber. The humidity within the chamber is adjusted with an ANSYCO humidity controller (SYCOS H-HOT). For single crystal structure analysis a single crystal sample was mounted in a nylon loop on a goniometer and measured at ambient conditions. Alternatively, the crystal was cooled in a nitrogen stream during measurement. Data were collected on a GEMINI R Ultra diffractometer from Oxford Diffraction. Cu-radiation of 1.54 A wavelength was used for data collection. Data was processed with the Oxford Diffraction CRYSALIS software. The crystal structure was solved and refined with standard crystallographic software. In this case the program ShelXTL from Bruker AXS (Karlsruhe) was used. The abbreviation "FWHM" denotes the full width at half maximum, which is a width of a peak (e.g. appearing in a spectrum, particularly in an XRPD pattern) at its half height. The term "sharp Bragg diffraction peak" in connection with X-ray diffraction patterns denotes a peak which is observed if Bragg' s law of diffraction is fulfilled. Generally, the FWHM of a sharp Bragg diffraction peak is less than 0.5° 2-theta. The term "amorphous halo" in connection with X-ray diffraction patterns denotes an approximately bell- shaped diffraction maximum in the X-ray powder diffraction pattern of an amorphous material. The FWHM of an amorphous halo is on principle larger than the FWHM of the peak of crystalline material. The terms "FTIR" and "IR" denote the analytical method of infrared spectroscopy. The IR-spectra of the samples are recorded as film of a Nujol suspension consisting of approx. 5 mg of sample and approx. 5 mg of Nujol (mineral oil) between two sodium chloride plates (cross section 13 mm) in transmittance with a FTIR- spectrometer. The spectra were recorded in spectral range between 4000 cm"1 and 600 cm"1, resolution 2 cm"1, and 300 coadded scans on a Magna 860 (thermo/Nicolet) equipped with a DTGS detector. The term "Raman" denotes the analytical method of Raman spectroscopy. For recording Raman spectra, the samples were spread on a glass slide. Raman spectra were recorded in the range of 150-3800 cm"1 with an ARAMIS (HoribaJobinYvon) Raman microscope equipped with a Peltier cooled CCD detector, at excitation of 633 nm, a 1200 1/mm grating, a x50 objective and with 3 exposures of 3s, or 7s for weak Raman scatterers. The term "DSC" denotes the analytical method of Differential Scanning Calorimetry. DSC thermograms were recorded using a Mettler-Toledo™ differential scanning calorimeter DSC820, DSC821 or DSC1 with a FRS05 sensor. […]

[2] = Salt selection screens of Formula V free base (organic solvents, aqueous, concentrated acids; XRPD); assay type: physicochemical; conditions: for XRPD post 1 day maturation / XRPD post 4 days maturation: HCl salt screen, HCl 1.1 equivalents
Method: Example 8: Salt Selection: Preparation of the hydrochloride salt was performed in the 20 solvents used for the solubility screen in order to select the optimal solvents for the salt screen. Formula V free base (ca. 10 mg) was suspended in the selected solvents (50 volumes; 500 µl) with stirring at 40°C. HCl (1.1 equivalents; […] in THF) was added, and the temperature was maintained for 30 minutes. […] The experiments were left cycling for further three days. […] Table 2. Results of HCl salt screen from 20 different solvents
Formula V free base (ca. 30 mg) was suspended in selected solvents (THF, nitromethane, acetonitrile and MEK; 50 volumes, 1.5 mL) at 50°C with stirring. The corresponding acid (1 equivalent) was added and the samples were stirred for 30 minutes, prior to ramping at 1 °C -min_1 to 25°C. The samples were placed in a shaker and subjected to heating/cooling cycles, between room temperature and 50°C, with four hours at each condition. Table 3. Input materials used for the salt screen
Further solvent (25 volumes) was added, and the suspensions were allowed to cycle for four more days. […] The samples were stored in a shaker and subjected to heating/cooling cycles, between room temperature and 50°C, with four hours at each condition for one week. […] Water (10% for MeCN, and 5% for THF, MEK and nitromethane, based on ca. 1.5 mL solvent) was added and the samples were cycled for a further 5 days. […] Table 4. XRPD results from the salt screen in acetonitrile.
An aqueous screen was performed. […] Table 11. Aqueous salt screen
The preparation of salts was conducted by dissolution in concentrated aqueous inorganic acids followed by precipitation with THF. Two procedures were performed, on 10 mg or 50 mg scale, investigating the effect of the order of addition of THF on the product produced.
Procedure A: Formula V free base (ca. 10 mg) was dissolved in the corresponding concentrated acid (50 µl) with stirring at room temperature and was added dropwise over THF (500 µl). Samples using HBr and HCl yielded solids and were shaken for 10 minutes and the solid was vacuum filtered, and dried under suction. H3PO4 yielded a solution that was subjected to heating/cooling cycles between room temperature and 50°C, four hours under each condition for 7 days. Procedure B: Formula V free base (ca. 50 mg) was dissolved in the corresponding concentrated acids (250 µl) with stirring at room temperature. THF (2.5 mL) was added dropwise to the solutions, and precipitation started. The samples were shaken for 30 minutes before being placed at 2-8°C for ca. 16 hours. HBr and HCl produced solids, which were vacuum filtered, washed with THF, dried under suction and under vacuum at 40°C for 16 hours. Table 13. Results from the salt screen from concentrated aqueous acids

[3] = salts from concentrated acids, second Details column (presumably Procedure B), listed as HCl salt
[4] = salt screen from concentrated aqueous acids, Formula V free base, Procedure A
[5] = salt screen from concentrated aqueous acids, Formula V free base, Procedure B
[6] = HBr salt obtained in the salt screen, Acetonitrile
[7] = HBr salt obtained in the salt screen, THF
[8] = salts from concentrated acids, second Details column (presumably Procedure B), listed as HBr salt
[9] = solvent 1-4-Dioxane (entry -13)
[10] = solvent Acetonitrile (entry -04)

Compound: Cc1onc(-c2ccc(F)cc2)c1COc1ccc(C(=O)N2CCS(=O)(=O)CC2)cn1 [Form A ({drug4a}), (1,1-dioxo-1lambda6-thiomorpholin-4-yl)-{6-[3-(4-fluoro-phenyl)-5-methyl-isoxazol-4-ylmethoxy]-pyridin-3-yl]-methanone]
thermodynamic stability of the solid form [1]: metastable polymorph
solid form changes at elevated temperature ([1]; Temperature Controlled XRPD): do not show solid form changes

Compound: Nc1nc2cc(-c3ccc4ncc(C(=O)N5CCOCC5)n4c3)ccc2o1 [{drug5a}, (6-(2-aminobenzo[d]oxazol-5-yl)imidazo[1,2-a]pyridin-3-yl)(morpholino)methanone]
Ion Chromatography ([2]; HCl salt from nitromethane): 0.8 eqs Cl
XRPD (vacuum dried) ([2]; HCl salt from nitromethane): HCl Pattern 1
Ion Chromatography ([2]; HCl salts from concentrated acids, first Details column (presumably Procedure A)): 1.6 eqs Cl
Ion Chromatography ([2]; HCl salts from concentrated acids, second Details column (presumably Procedure B)): 1.7 eqs Cl
XRPD (air dried) ([2]; salts from concentrated acids, first Details column (presumably Procedure A), listed as HCl salt): HCl Pattern 2
XRPD (air dried) [2, 3]: HCl Pattern 2
XRPD (vacuum dried) [2, 3]: HCl Pattern 2; also recorded: Slight changes, more peaks

Compound: Cl [HCl]
Observations after adda of THF [2, 4]: White suspension
Observations after adda of THF [2, 5]: White suspension

Compound: Br [HBr]
Observations after adda of THF [2, 4]: While suspension
Observations after adda of THF [2, 5]: White suspension

Further lines, with some results ahead:

Maturation [2, 4]: Oil
Observations after adda of THF [2, 4]: Solution
Observations after adda of THF [2, 5]: Oil
Compound: O=P(O)(O)O [Compound H3PO4]

Ion Chromatography ([2]; HBr salt from aqueous screen): 0.8 eqs Cl
XRPD (vacuum dried) ([2]; HBr salt from aqueous screen): HBr Pattern 3
Ion Chromatography [2, 6]: 1.1 eqs C 1
XRPD (vacuum dried) [2, 6]: HBr Pattern 1, slight evidence of FB
XRPD (vacuum dried) ([2]; HBr salt obtained in the salt screen, Nitromethane): HBr Pattern 1, slight evidence of FB
Ion Chromatography [2, 7]: 0.8 eqs Cl
XRPD (vacuum dried) [2, 7]: HBr Pattern 1
Ion Chromatography ([2]; HBr salts from concentrated acids, first Details column (presumably Procedure A)): 1.7 eqs Br
Ion Chromatography ([2]; HBr salts from concentrated acids, second Details column (presumably Procedure B)): 1.8 eqs Br
XRPD (air dried) ([2]; salts from concentrated acids, first Details column (presumably Procedure A), listed as HBr salt): HBr Pattern 2
XRPD (air dried) [2, 8]: HBr Pattern 4
Compound: Nc1nc2cc(-c3ccc4ncc(C(=O)N5CCOCC5)n4c3)ccc2o1 [{drug5b}, (6-(2-aminobenzo[d]oxazol-5-yl)imidazo[1,2-a]pyridin-3-yl)(morpholino)methanone]
XRPD (vacuum dried) [2, 8]: HBr Pattern 4; also recorded: Slight changes, more peaks

XRPD post 4 days maturation [2, 9]: Amorphous
XRPD post 1 day maturation ([2]; solvent Acetone (entry -05)): New peaks + free base
XRPD post 4 days maturation ([2]; solvent Acetone (entry -05)): Free base
XRPD post 1 day maturation [2, 10]: New peaks + free base
XRPD post 4 days maturation [2, 10]: HCl Pattern 1
XRPD post 1 day maturation ([2]; solvent DIPE (entry -10)): New peaks + free base
XRPD post 4 days maturation ([2]; solvent DIPE (entry -10)): New peaks + free base
XRPD post 4 days maturation ([2]; solvent EtOAc (entry -08)): New peaks + free base
XRPD post 4 days maturation ([2]; solvent Ethanol (entry -02)): Amorphous
XRPD post 4 days maturation ([2]; solvent IPA (entry -03)): Amorphous
XRPD post 4 days maturation ([2]; solvent IPAc (entry -09)): New peaks + free base
XRPD post 1 day maturation ([2]; solvent MEK (entry -06)): New peaks + free base
XRPD post 4 days maturation ([2]; solvent MEK (entry -06)): HCl Pattern 1
XRPD post 1 day maturation ([2]; solvent MIBK (entry -07)): New peaks + free base
XRPD post 4 days maturation ([2]; solvent MIBK (entry -07)): New peaks + free base
XRPD post 1 day maturation ([2]; solvent MeNO2 (entry -14)): HCl Pattern I
XRPD post 4 days maturation ([2]; solvent Methanol (entry -01)): Loss of crystallinity
XRPD post 1 day maturation ([2]; solvent TBME (entry -11)): New peaks + free base
XRPD post 4 days maturation ([2]; solvent TBME (entry -11)): New peaks + free base
XRPD post 4 days maturation ([2]; solvent THF (entry -12)): HCl Pattern 1
XRPD post 1 day maturation ([2]; solvent Toluene (entry -15)): New peaks + free base
XRPD post 4 days maturation ([2]; solvent Toluene (entry -15)): New peaks + free base
XRPD post 1 day maturation ([2]; solvent tBuOH (entry -18)): New peaks + free base
XRPD post 4 days maturation ([2]; solvent tBuOH (entry -18)): Free base
Compound: Nc1nc2cc(-c3ccc4ncc(C(=O)N5CCOCC5)n4c3)ccc2o1 [compound of Formula V, (6-(2-aminobenzo[d]oxazol-5-yl)imidazo[1,2-a]pyridin-3-yl)(morpholino)methanone]
XRPD post 1 day maturation [2, 9]: New peaks free base (loss of crystallinity)
XRPD post 1 day maturation ([2]; solvent BuOAc (entry -16)): New peaks + free base (loss of crystallinity)
XRPD post 4 days maturation ([2]; solvent BuOAc (entry -16)): New peaks + free base (loss of crystallinity)
XRPD post 1 day maturation ([2]; solvent DCM (entry -17)): New peaks + free base (loss of crystallinity)
XRPD post 4 days maturation ([2]; solvent DCM (entry -17)): New peaks + free base (loss of crystallinity)
XRPD post 1 day maturation ([2]; solvent EtOAc (entry -08)): New peaks + free base (loss of crystallinity)
XRPD post 1 day maturation ([2]; solvent Ethanol (entry -02)): New peaks + free base (loss of crystallinity)
XRPD post 1 day maturation ([2]; solvent IPA (entry -03)): New peaks + free base (loss of crystallinity)
XRPD post 1 day maturation ([2]; solvent IPAc (entry -09)): New peaks + free base (loss of crystallinity)
XRPD post 1 day maturation ([2]; solvent Methanol (entry -01)): New peaks + free base (loss of crystallinity)
XRPD post 1 day maturation ([2]; solvent THF (entry -12)): New peaks + free base (loss of crystallinity)
